From patent US8802895B2, “Amide derivatives of benzene-sulfonanilide, pharmaceutical composition thereof and method for cancer treatment using the same” (Cleveland State University, priority 2010, dated 2014)

Columns and labels:
MALME-3M = test: NCIDTP 60 cancer cell lines screening, Melanoma panel; format: cell-based
CCRF-CEM = test: NCIDTP 60 cancer cell lines screening, Leukemia panel; format: cell-based
ACHN = test: NCIDTP 60 cancer cell lines screening, Renal Cancer panel; format: cell-based
cells = test: Primary mechanism study: cell viability with compound #10 and 2-APB (FIG. 10); format: cell-based; details: with and without 2-APB; cell viability after 48 hours
Description: For the experiment, 2-APB was first added. […] The control cells were treated with same amount of DMSO to carry the drugs. The cell viability was evaluated after 48 hours.

HOP-62 = test: NCIDTP 60 cancer cell lines screening, Non-Small Cell Lung Cancer panel; format: cell-based
BT-549 = test: NCIDTP 60 cancer cell lines screening, Breast Cancer panel; format: cell-based
A549/ATCC = test: NCIDTP 60 cancer cell lines screening, Non-Small Cell Lung Cancer panel; format: cell-based
[1] = system: HT29 colon cancer xenograft; test: In vivo study, HT29 colon cancer xenograft model (FIG. 11); parameters: species or system BALB/c athymic nude mice; details: HT29 xenograft in nude mice, 5 mg/kg/day, i.p., 20 days
Description: HT29 colon cancer xenograft model is a generally accepted in vivo cancer model and the formed tumor grows very aggressively. […] In the experiment, HT29 xenografts were established in ovariectomized 5- to 6-week-old BALB/c athymic nude mice (Case Western Reserve University animal facility). When tumors reach 150-200 mm^3 (i.e., in 2-4 weeks), the animals are randomly allocated (n=3 per group) to be treated with the compounds or vehicle (1% Tween 80) administered via i.p. Tumor growth was assessed and tumor weights were measured at the end of the experiment after the mice were killed. The animal care was in accordance with institutional guidelines.

OVCAR-4 = test: NCIDTP 60 cancer cell lines screening, Ovarian Cancer panel; format: cell-based
OVCAR-8 = test: as above; format: cell-based
SF-539 = test: NCIDTP 60 cancer cell lines screening, CNS Cancer panel; format: cell-based
NCI-H522 = test: NCIDTP 60 cancer cell lines screening, Non-Small Cell Lung Cancer panel; format: cell-based
HT29 = test: NCIDTP 60 cancer cell lines screening, Colon Cancer panel; format: cell-based
MOLT-4 = test: NCIDTP 60 cancer cell lines screening, Leukemia panel; format: cell-based
RPMI-8226 = test: as above; format: cell-based
786-0 = test: NCIDTP 60 cancer cell lines screening, Renal Cancer panel; format: cell-based
EKVX = test: NCIDTP 60 cancer cell lines screening, Non-Small Cell Lung Cancer panel; format: cell-based

Cc1ccc(C)c(COc2cc(NC(=O)c3ccc4c(c3)OCO4)ccc2N(C)S(C)(=O)=O)c1 [Compound #10, Benzo[1,3]dioxole-5-carboxylic acid [3-(2,5-dimethyl-benzyloxy)-4-(methanesulfonyl-methyl-amino)-phenyl]-amide]
GI50 (MALME-3M; Homo sapiens, Malme-3M): 229 nM
CC50 (MALME-3M; Homo sapiens, Malme-3M, read-out: LC50): > 100000 nM
TGI (MALME-3M; MALME-3M): >1.00E−4 Molar
Percent Growth (MALME-3M; MALME-3M, Log10 Concentration −4.0 Molar): 49%
Percent Growth (MALME-3M; MALME-3M, Log10 Concentration −5.0 Molar): 40%
Percent Growth (MALME-3M; MALME-3M, Log10 Concentration −6.0 Molar): 31%
Percent Growth (MALME-3M; MALME-3M, Log10 Concentration −7.0 Molar): 61%
Percent Growth (MALME-3M; MALME-3M, Log10 Concentration −8.0 Molar): 87%
TGI (CCRF-CEM): >1.00E−4 Molar
GI50 (CCRF-CEM; Homo sapiens): 48.5 nM
CC50 (CCRF-CEM; Homo sapiens, read-out: LC50): > 100000 nM
Percent Growth (CCRF-CEM; Log10 Concentration −4.0 Molar): 16%
Percent Growth (CCRF-CEM; Log10 Concentration −5.0 Molar): 14%
Percent Growth (CCRF-CEM; Log10 Concentration −6.0 Molar): 13%
Percent Growth (CCRF-CEM; Log10 Concentration −7.0 Molar): 31%
Percent Growth (CCRF-CEM; Log10 Concentration −8.0 Molar): 92%
TGI (ACHN): >1.00E−4 Molar
GI50 (ACHN; Homo sapiens): 687 nM
CC50 (ACHN; Homo sapiens, read-out: LC50): > 100000 nM
Percent Growth (ACHN; Log10 Concentration −4.0 Molar): 23%
Percent Growth (ACHN; Log10 Concentration −5.0 Molar): 26%
Percent Growth (ACHN; Log10 Concentration −6.0 Molar): 45%
Percent Growth (ACHN; Log10 Concentration −7.0 Molar): 75%
Percent Growth (ACHN; Log10 Concentration −8.0 Molar): 95%
cell death / cell viability, relation with calcium signal (cells): induces cell death that is at least partially related with calcium signal in the cells
TGI (HOP-62; HOP-62): >1.00E−4 Molar
Percent Growth (HOP-62; HOP-62, Log10 Concentration −4.0 Molar): 19%
Percent Growth (HOP-62; HOP-62, Log10 Concentration −5.0 Molar): 18%
Percent Growth (HOP-62; HOP-62, Log10 Concentration −6.0 Molar): 18%
Percent Growth (HOP-62; HOP-62, Log10 Concentration −7.0 Molar): 84%
Percent Growth (HOP-62; HOP-62, Log10 Concentration −8.0 Molar): 102%
GI50 (HOP-62; Homo sapiens, HOP-62): 329 nM
CC50 (HOP-62; Homo sapiens, HOP-62, read-out: LC50): > 100000 nM
TGI (BT-549; BT-549): >1.00E−4 Molar
Percent Growth (BT-549; BT-549, Log10 Concentration −4.0 Molar): 21%
Percent Growth (BT-549; BT-549, Log10 Concentration −5.0 Molar): 13%
Percent Growth (BT-549; BT-549, Log10 Concentration −6.0 Molar): 45%
Percent Growth (BT-549; BT-549, Log10 Concentration −7.0 Molar): 70%
Percent Growth (BT-549; BT-549, Log10 Concentration −8.0 Molar): 92%
GI50 (BT-549; Homo sapiens, BT-549): 656 nM
CC50 (BT-549; Homo sapiens, BT-549, read-out: LC50): > 100000 nM
TGI (A549/ATCC; A549/ATCC): 1.36E−5 Molar
Percent Growth (A549/ATCC; A549/ATCC, Log10 Concentration −4.0 Molar): −29%
Percent Growth (A549/ATCC; A549/ATCC, Log10 Concentration −5.0 Molar): 5%
Percent Growth (A549/ATCC; A549/ATCC, Log10 Concentration −6.0 Molar): 12%
Percent Growth (A549/ATCC; A549/ATCC, Log10 Concentration −7.0 Molar): 80%
Percent Growth (A549/ATCC; A549/ATCC, Log10 Concentration −8.0 Molar): 97%
CC50 (A549/ATCC; Homo sapiens, A549, read-out: LC50): > 100000 nM
GI50 (A549/ATCC; Homo sapiens, A549/ATCC): 278 nM
tumor growth [1]: significantly inhibited the tumor growth
CC50 (OVCAR-4; Homo sapiens, OVCAR-4, read-out: LC50): > 100000 nM
TGI (OVCAR-4; OVCAR-4): >1.00E−4 Molar
Percent Growth (OVCAR-4; OVCAR-4, Log10 Concentration −4.0 Molar): 56%
Percent Growth (OVCAR-4; OVCAR-4, Log10 Concentration −5.0 Molar): 47%
Percent Growth (OVCAR-4; OVCAR-4, Log10 Concentration −6.0 Molar): 54%
Percent Growth (OVCAR-4; OVCAR-4, Log10 Concentration −7.0 Molar): 90%
Percent Growth (OVCAR-4; OVCAR-4, Log10 Concentration −8.0 Molar): 87%
GI50 (OVCAR-8; Homo sapiens, OVCAR-8): 265 nM
CC50 (OVCAR-8; Homo sapiens, OVCAR-8, read-out: LC50): > 100000 nM
TGI (OVCAR-8; OVCAR-8): >1.00E−4 Molar
Percent Growth (OVCAR-8; OVCAR-8, Log10 Concentration −4.0 Molar): 6%
Percent Growth (OVCAR-8; OVCAR-8, Log10 Concentration −5.0 Molar): 8%
Percent Growth (OVCAR-8; OVCAR-8, Log10 Concentration −6.0 Molar): 10%
Percent Growth (OVCAR-8; OVCAR-8, Log10 Concentration −7.0 Molar): 80%
Percent Growth (OVCAR-8; OVCAR-8, Log10 Concentration −8.0 Molar): 94%
GI50 (SF-539; Homo sapiens, SF-539): 125 nM
CC50 (SF-539; Homo sapiens, SF-539, read-out: LC50): > 100000 nM
Percent Growth (SF-539; SF-539, Log10 Concentration −5.0 Molar): −10%
Percent Growth (SF-539; SF-539, Log10 Concentration −6.0 Molar): −10%
Percent Growth (SF-539; SF-539, Log10 Concentration −7.0 Molar): 56%
Percent Growth (SF-539; SF-539, Log10 Concentration −8.0 Molar): 91%
GI50 (NCI-H522; Homo sapiens, NCI-H522): 33.5 nM
CC50 (NCI-H522; Homo sapiens, NCI-H522, read-out: LC50): > 100000 nM
TGI (NCI-H522; NCI-H522): 2.40E−7 Molar
Percent Growth (NCI-H522; NCI-H522, Log10 Concentration −4.0 Molar): −36%
Percent Growth (NCI-H522; NCI-H522, Log10 Concentration −5.0 Molar): −42%
Percent Growth (NCI-H522; NCI-H522, Log10 Concentration −6.0 Molar): −37%
Percent Growth (NCI-H522; NCI-H522, Log10 Concentration −7.0 Molar): 23%
Percent Growth (NCI-H522; NCI-H522, Log10 Concentration −8.0 Molar): 80%
TGI (HT29; HT29): 4.19E−7 Molar
Percent Growth (HT29; HT29, Log10 Concentration −4.0 Molar): −48%
Percent Growth (HT29; HT29, Log10 Concentration −5.0 Molar): −48%
Percent Growth (HT29; HT29, Log10 Concentration −6.0 Molar): −26%
Percent Growth (HT29; HT29, Log10 Concentration −7.0 Molar): 44%
Percent Growth (HT29; HT29, Log10 Concentration −8.0 Molar): 101%
CC50 (HT29; Homo sapiens, HT-29, read-out: LC50): > 100000 nM
GI50 (HT29; Homo sapiens, HT-29, HT29): 77.2 nM
inhibition of cancer cell growth (NCI screening results, in words) (HT29; many types of cancer cell including HT29 colon cancer cells): very potent to inhibit the growth
GI50 (MOLT-4; Homo sapiens, MOLT-4): 163 nM
CC50 (MOLT-4; Homo sapiens, MOLT-4, read-out: LC50): > 100000 nM
TGI (MOLT-4; MOLT-4): >1.00E−4 Molar
Percent Growth (MOLT-4; MOLT-4, Log10 Concentration −4.0 Molar): 13%
Percent Growth (MOLT-4; MOLT-4, Log10 Concentration −5.0 Molar): 7%
Percent Growth (MOLT-4; MOLT-4, Log10 Concentration −6.0 Molar): 12%
Percent Growth (MOLT-4; MOLT-4, Log10 Concentration −7.0 Molar): 80%
Percent Growth (MOLT-4; MOLT-4, Log10 Concentration −8.0 Molar): 99%
GI50 (RPMI-8226; Homo sapiens, RPMI-8226): 290 nM
CC50 (RPMI-8226; Homo sapiens, RPMI-8226, read-out: LC50): > 100000 nM
Percent Growth (RPMI-8226; RPMI-8226, Log10 Concentration −4.0 Molar): 6%
Percent Growth (RPMI-8226; RPMI-8226, Log10 Concentration −5.0 Molar): −2%
Percent Growth (RPMI-8226; RPMI-8226, Log10 Concentration −6.0 Molar): 14%
Percent Growth (RPMI-8226; RPMI-8226, Log10 Concentration −7.0 Molar): 81%
Percent Growth (RPMI-8226; RPMI-8226, Log10 Concentration −8.0 Molar): 93%
TGI (786-0; 786-0): 1.11E−6 Molar
Percent Growth (786-0; 786-0, Log10 Concentration −4.0 Molar): −14%
Percent Growth (786-0; 786-0, Log10 Concentration −5.0 Molar): −22%
Percent Growth (786-0; 786-0, Log10 Concentration −6.0 Molar): 1%
Percent Growth (786-0; 786-0, Log10 Concentration −7.0 Molar): 69%
Percent Growth (786-0; 786-0, Log10 Concentration −8.0 Molar): 91%
GI50 (786-0; Homo sapiens, 786-0): 191 nM
CC50 (786-0; Homo sapiens, 786-0, read-out: LC50): > 100000 nM
TGI (EKVX): >1.00E−4 Molar
GI50 (EKVX; Homo sapiens): 598 nM
CC50 (EKVX; Homo sapiens, read-out: LC50): > 100000 nM
Percent Growth (EKVX; Log10 Concentration −4.0 Molar): 33%
Percent Growth (EKVX; Log10 Concentration −5.0 Molar): 25%
Percent Growth (EKVX; Log10 Concentration −6.0 Molar): 39%
Percent Growth (EKVX; Log10 Concentration −7.0 Molar): 88%
Percent Growth (EKVX; Log10 Concentration −8.0 Molar): 94%
